Measurements taken from article PMC9348805, “Identification of the NRF2 transcriptional network as a therapeutic target for trigeminal neuropathic pain” (Science Advances, 2022).

Biological target: T1, TRPA1 (Homo sapiens, UniProt O75762)
T1 construct: full-length myc-tagged TRPA1 cDNA (gift of M. Caterina), transiently expressed in HEK-293 cells; Fura-2 calcium imaging
Assay: calcium imaging (Fura-2) of HEK-293 cells transiently expressing TRPA1, with vector and mutant controls
Type: cell-based

T1 sequence (O75762 whole entry): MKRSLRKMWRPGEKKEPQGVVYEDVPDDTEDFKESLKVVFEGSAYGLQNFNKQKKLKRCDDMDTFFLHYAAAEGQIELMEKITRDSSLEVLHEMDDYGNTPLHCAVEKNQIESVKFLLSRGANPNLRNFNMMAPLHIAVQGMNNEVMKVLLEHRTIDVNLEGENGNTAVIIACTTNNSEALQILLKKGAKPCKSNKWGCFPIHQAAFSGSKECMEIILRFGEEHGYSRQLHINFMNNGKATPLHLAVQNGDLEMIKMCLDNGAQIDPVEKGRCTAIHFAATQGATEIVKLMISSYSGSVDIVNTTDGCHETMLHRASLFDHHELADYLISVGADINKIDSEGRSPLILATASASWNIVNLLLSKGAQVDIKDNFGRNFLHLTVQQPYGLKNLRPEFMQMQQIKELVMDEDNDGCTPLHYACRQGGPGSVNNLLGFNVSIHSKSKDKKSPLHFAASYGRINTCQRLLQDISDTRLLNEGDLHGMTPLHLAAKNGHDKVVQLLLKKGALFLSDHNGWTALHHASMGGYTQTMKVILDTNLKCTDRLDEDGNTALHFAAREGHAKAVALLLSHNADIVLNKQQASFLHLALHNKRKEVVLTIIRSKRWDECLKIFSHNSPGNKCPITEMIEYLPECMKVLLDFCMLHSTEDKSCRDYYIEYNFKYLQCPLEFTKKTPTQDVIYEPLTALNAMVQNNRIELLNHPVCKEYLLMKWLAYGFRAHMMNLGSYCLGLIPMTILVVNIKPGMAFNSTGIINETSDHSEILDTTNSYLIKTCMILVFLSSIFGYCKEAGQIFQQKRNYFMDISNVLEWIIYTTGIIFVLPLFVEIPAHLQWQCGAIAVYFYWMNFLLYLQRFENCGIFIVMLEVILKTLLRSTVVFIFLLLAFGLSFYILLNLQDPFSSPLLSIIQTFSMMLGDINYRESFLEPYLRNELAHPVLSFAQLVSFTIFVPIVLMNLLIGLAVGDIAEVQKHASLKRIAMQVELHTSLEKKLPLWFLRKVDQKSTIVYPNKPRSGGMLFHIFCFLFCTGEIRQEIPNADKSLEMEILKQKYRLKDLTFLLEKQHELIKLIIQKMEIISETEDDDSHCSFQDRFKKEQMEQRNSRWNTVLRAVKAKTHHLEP

## CCCCCC(O)C=CC=O (stereo not shown) [4-HNE]
  EC50: 48 µM
